According to US8921382B2, “Thiazolo[5,4-d] pyrimidines and their use as agrochemicals” (Dow AgroSciences, LLC., priority 2010, dated 2014):

How the values were obtained:
Type in all cases: in vivo
[1] = tested on: Pyricularia oryzae; test: whole plant or invertebrate; details: foliar, read-out: Activity against Fungal Diseases PYRIOR (percent disease control)
[2] = tested on: Puccinia recondita tritici; test: Leaf Rust of Wheat foliar spray test, inoculated one day after treatment; details: wheat plants, read-out: Activity against Fungal Diseases PUCCRT (percent disease control); for pest or weed control at 200 ppm: applied to foliage at 200 ppm; for pest or weed control at 3 ppm: Tested at 3 ppm
Description: (§1) Fungicide activity data are the level (in percent) at which the given disease was controlled when the given compound was applied to the foliage of the plants at 200 ppm. In a few cases (noted in the table) the compound was applied to the plants at 25 ppm or 3 ppm. The plants were inoculated with the fungus one day after treatment. ***=80-100% control; **=50-79% control; *=0-49% control. […] The activity of the compounds as effective fungicides was determined by applying the compounds to plants and observing control of fungal disease. […] All plants were inoculated with spores of the fungus the day after treatment, then incubated in an environment conducive to disease development. Disease severity was evaluated 4 to 25 days (d) later, depending on the speed of disease development. The following experiments were performed in the laboratory to determine the fungicidal efficacy of the compounds of the invention. […] Each pot contained 3-8 seedlings. These plants were sprayed until wet with the formulated test compounds. On the following day, the leaves were inoculated with an aqueous spore suspension of Puccinia recondita tritici and the plants were kept in high humidity overnight to permit spores to germinate and infect the leaf. The plants were then transferred to a greenhouse until disease developed on untreated control plants. […] The effectiveness of the test compounds at controlling disease when sprayed on leaves was determined by assessing the severity of disease on treated plants, then converting the severity to percent control based on the level of disease on untreated, inoculated plants.

[3] = tested on: Septoria tritici; test: Septoria Blotch of Wheat foliar spray test, inoculated one day after treatment; details: Zymoseptoria tritici, wheat plants, read-out: Activity against Fungal Diseases SEPTTR (percent disease control); for pest or weed control at 25 ppm: Tested at 25 ppm; for pest or weed control at 200 ppm: applied to foliage at 200 ppm
Description: as §1, with “3-10” for “3-8”, “compound.” for “compounds.”, “Septoria” for “Puccinia recondita”, “(one day in a dark dew chamber followed by two days in a lighted dew chamber)” for “overnight”

| SMILES | pest or weed control at 200 ppm [1] | pest or weed control at 200 ppm [2] | pest or weed control at 25 ppm [3] | pest or weed control at 3 ppm [2] | pest or weed control at 200 ppm [3] |
| --- | --- | --- | --- | --- | --- |
| COc1ccc(C(C)Nc2ncnc3scnc23)cc1 (stereo not shown) [Compound 1, [1-(4-Methoxyphenyl)-ethyl]-thiazolo[5,4-d]pyrimidin-7-yl-amine] | 80 to 100% | 80 to 100% |  |  |  |
| N#Cc1ccnc(Oc2ccc(CCNc3ncnc4scnc34)cc2)c1 [Compound 2, 2-{4-[2-(thiazolo[5,4-d]pyrimidin-7-ylamino)-ethyl]-phenoxy}-isonicotinonitrile] | 80 to 100% | 80 to 100% | 50 to 79% |  |  |
| Oc1ccc(CCNc2ncnc3scnc23)cc1 [Compound 3, 4-[2-(thiazolo[5,4-d]pyrimidin-7-ylamino)-ethyl]-phenol] | 0 to 49% | 0 to 49% | 0 to 49% |  |  |
| FC(F)(F)COc1ccc(CCNc2ncnc3scnc23)cn1 [Compound 4, thiazolo[5,4-d]pyrimidin-7-yl-{2-[6-(2,2,2-trifluoroethoxy)-pyridin-3-yl]-ethyl}-amine] | 80 to 100% | 80 to 100% | 0 to 49% |  |  |
| Fc1nc(F)c(F)c(Oc2ccc(CCNc3ncnc4scnc34)cc2)c1F [Compound 5, {2-[4-(2,3,5,6-tetrafluoropyridin-4-yloxy)-phenyl]-ethyl}-thiazolo[5,4-d]pyrimidin-7-ylamine] |  |  | 0 to 49% | 80 to 100% |  |
| CC(Cc1ccc(Oc2c(F)cnc(C(F)(F)F)c2F)cc1)Nc1ncnc2scnc12 (stereo not shown) [Compound 14, {2-[4-(3,5-Difluoro-2-trifluoromethylpyridin-4-yloxy)-phenyl]-1-methyl-ethyl}-thiazolo[5,4-d]pyrimidin-7-ylamine] |  |  | 80 to 100% | 0 to 49% |  |
| COc1cc(CCNc2ncnc3scnc23)ccc1Oc1cc(C(F)(F)F)ccn1 [Compound 17, {2-[3-methoxy-4-(4-trifluoromethylpyridin-2-yloxy)-phenyl]-ethyl}-thiazolo[5,4-d]pyrimidin-7-ylamine] |  |  | 80 to 100% | 80 to 100% |  |
| COc1ccc(CCNc2ncnc3scnc23)cc1C [Compound 19, [2-(4-methoxy-3-methylphenyl)-ethyl]-thiazolo[5,4-d]pyrimidin-7-ylamine] |  | 80 to 100% |  |  | 50 to 79% |
| Cc1cc(CCNc2ncnc3scnc23)ccc1O [Compound 20, 2-methyl-4-[2-(thiazolo[5,4-d]pyrimidin-7-ylamino)-ethyl]-phenol] |  | 0 to 49% |  |  | 0 to 49% |
| COc1cc(CCNc2ncnc3scnc23)ccc1Oc1cnccc1C(F)(F)F [Compound 29, {2-[3-methoxy-4-(4-trifluoromethylpyridin-3-yloxy)-phenyl]-ethyl}-thiazolo[5,4-d]pyrimidin-7-ylamine] |  |  | 50 to 79% | 80 to 100% |  |
| Cc1cc(CCN(c2nc(C(F)(F)F)c(Cl)s2)c2ncnc3scnc23)ccc1Oc1nc(C(F)(F)F)c(Cl)s1 [Compound 45, (5-chloro-4-trifluoromethylthiazol-2-yl)-{2-[4-(5-chloro-4-trifluoromethylthiazol-2-yloxy)-3-methylphenyl]-ethyl}-thiazolo[5,4-d]pyrimidin-7-ylamine] |  |  | 0 to 49% | 0 to 49% |  |
| Cc1cc(CCNc2ncnc3scnc23)ccc1Oc1ccncc1C(F)(F)F [Compound 47, {2-[3-methyl-4-(3-trifluoromethylpyridin-4-yloxy)-phenyl]-ethyl}-thiazolo[5,4-d]pyrimidin-7-ylamine] | 80 to 100% | 80 to 100% |  |  | 80 to 100% |
| COc1cc(CCNc2ncnc3scnc23)ccc1Oc1c(Cl)cnc(C(F)(F)F)c1Cl [Compound 48, {2-[4-(3,5-dichloro-2-trifluoromethylpyridin-4-yloxy)-3-methoxyphenyl]-ethyl}-thiazolo[5,4-d]pyrimidin-7-ylamine] | 80 to 100% | 80 to 100% |  |  | 80 to 100% |
| FC(F)(F)c1ccc(Oc2ccc(CCNc3ncnc4scnc34)cc2)nc1 [Compound 50, thiazolo[5,4-d]pyrimidin-7-yl-{2-[4-(5-trifluoromethylpyridin-2-yloxy)-phenyl]-ethyl}-amine] |  |  | 80 to 100% | 80 to 100% |  |
| COc1cc(CCNc2ncnc3scnc23)ccc1Oc1ccc(C(F)(F)F)cn1 [Compound 51, {2-[3-methoxy-4-(5-trifluoromethylpyridin-2-yloxy)-phenyl]-ethyl}-thiazolo[5,4-d]pyrimidin-7-ylamine] |  |  | 80 to 100% | 80 to 100% |  |
| COc1cc(CCNc2ncnc3scnc23)ccc1Oc1cc(C(F)(F)F)ncn1 [Compound 54, {2-[3-methoxy-4-(6-trifluoromethylpyrimidin-4-yloxy)-phenyl]-ethyl}-thiazolo[5,4-d]pyrimidin-7-ylamine] |  | 80 to 100% |  |  | 80 to 100% |
| COc1ccc(CCNc2ncnc3scnc23)c(F)c1 [Compound 55, [2-(2-fluoro-4-methoxyphenyl)-ethyl]-thiazolo[5,4-d]pyrimidin-7-ylamine] |  | 80 to 100% |  |  | 0 to 49% |
| COc1ccc(CCNc2ncnc3scnc23)c(C)c1 [Compound 56, [2-(4-methoxy-2-methylphenyl)-ethyl]-thiazolo[5,4-d]pyrimidin-7-ylamine] |  | 0 to 49% |  |  | 50 to 79% |
| Cc1cc(O)ccc1CCNc1ncnc2scnc12 [Compound 57, 3-methyl-4-[2-(thiazolo[5,4-d]pyrimidin-7-ylamino)-ethyl]-phenol] |  | 0 to 49% |  |  | 0 to 49% |
| Oc1ccc(CCNc2ncnc3scnc23)c(F)c1 [Compound 58, 3-fluoro-4-[2-(thiazolo[5,4-d]pyrimidin-7-ylamino)-ethyl]phenol] |  | 0 to 49% |  |  | 0 to 49% |
| Fc1cc(Oc2cc(C(F)(F)F)ccn2)ccc1CCNc1ncnc2scnc12 [Compound 60, {2-[2-fluoro-4-(4-trifluoromethylpyridin-2-yloxy)-phenyl]-ethyl}-thiazolo[5,4-d]pyrimidin-7-ylamine] |  | 80 to 100% |  |  | 80 to 100% |
| Fc1cc(Oc2cc(C(F)(F)F)ncn2)ccc1CCNc1ncnc2scnc12 [Compound 63, {2-[2-fluoro-4-(6-trifluoromethylpyrimidin-4-yloxy)-phenyl]-ethyl}-thiazolo[5,4-d]pyrimidin-7-ylamine] |  | 80 to 100% |  |  | 80 to 100% |
